The record followed here is patent publication US20240058450A1, “BCL-XL Inhibitory Compounds Having Low Cell Permeability and Antibody Drug Conjugates Including the Same” (AbbVie Inc., priority 2014, published 2024).

Test [1] has as its system permeabilized Molt-4 cells. As to the kind of experiment: JC-1 percent depolarization assay in digitonin permeabilized Molt-4 cells. Type of test: cell-based. To be noted: Homo sapiens. The source says: In addition to cytochrome c release, mitochondria undergoing apoptosis frequently lose their transmembrane mitochondrial membrane potential (Bouchier-Hayes et al., 2008, Methods 44(3): 222-228). JC-1 is a cationic carbocyanine dye that accumulates in mitochondria and fluoresces red when mitochondria are healthy and is lost when the mitochondrial membrane is compromised (percentage depolarization; Smiley et al., 1991, Proc. Natl. Acad. Sci. USA, 88: 3671-3675; Reers et al., 1991: Biochemistry, 30: 4480-4486). This loss in signal can be detected in permeabilized cells using a fluorimeter (excitation 545 nm and emission of 590 nm) and is therefore fully quantitative, enhancing both reproducibility and throughput. Specifically, digitonin permeabilized molt-4 cells (75,000/well) were treated with Bcl-xL inhibitors (1000 nM-0.00 nM) for up to 180 minutes at 32° C., with fluorescence determined every 10 minutes. At the maximal signal, the percentage depolarization can be determined for each time concentration of Bcl-xL inhibitors according to the formula:
% Depolarization=1−[(Sample−FCCP)/(DMSO−FCCP)]
DMSO and FCCP (10 μM) are used as negative and positive controls respectively (Ryan & Letai, 2013, Methods 61(2): 156-164). EC50 values were subsequently determined from the resulting concentration-response curves. Good alignment was observed when the ability of Bcl-xL inhibitors to induce cytochrome c release was compared to loss in JC-1 fluorescence in permeabilized Molt-4 cells.

Another test has as its target Bcl-xL (Homo sapiens, UniProt Q07817). Kind of test: Time Resolved-Fluorescence Resonance Energy Transfer (TR-FRET) binding assay, competition with probe F-Bak. Put shortly:
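Compounds compete with F-Bak probe for GST-Bcl-xL detected by Tb-anti-GST antibody. Serial dilutions from 50 μM (2× stock) incubated 2 h at room temperature, then read at 340 nm excitation, 520 and 495 nm emission. Ki by Wang's equation, tested without and with 1% human serum.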

In test [2] the test system is Molt-4 human acute lymphoblastic leukemia cells. As to the kind of experiment: Molt-4 cell viability assay (CellTiter-Glo, 48 hours, 10% HS). Type of test: cell-based. To be noted: Homo sapiens, MOLT-4, 48 h, non-permeabilized cells. Summed up:
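Cells were seeded at 12,500 per well in medium with 10% human serum and exposed to a 3-fold compound dilution series from 10 μM to 0.0005 μM. After 48 h, viable cells were quantified by CellTiter-Glo luminescence. Each concentration was run in duplicate on at least 3 occasions.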

The subject of test [3] is permeabilized Bcl-xL dependent Molt-4 cells. As to the kind of experiment: Cytochrome C release in selectively (digitonin) permeabilized Molt-4 cells. Type of test: cell-based, human. To be noted: Homo sapiens, MOLT-4, 4 h, 4 h treatment, read-out: Molt-4 Permeabilized Cyt C Release. The source says:
The permeabilization of the mitochondrial outer membrane to release proteins from the intermembrane space into the cytosol is a pivotal event in the process of apoptosis. Specifically, the release of cytochrome C triggers the formation of the apoptosome which, in turn, results in caspase activation and other events that will commit the cell to undergo programmed cell death (Goldstein el al., 2005, Cell Death and Differentiation 12:453). The process of mitochondrial outer membrane permeabilization (MOMP) is controlled by the Bcl-2 family members. It is promoted by the multidomain pro-apoptotic proteins Bax and Bak which, upon activation, oligomerize on the outer mitochondrial membrane and form pores to ultimately release cytochrome C. This action is antagonized by the antiapoptotic members, including Bcl-2 and Bcl-xL. Compounds that are capable of inhibiting Bcl-2 or Bcl-xL, for example, in cells that depend upon these proteins for survival, can cause activation of Bax and or Bak, MOMP, release of cytochrome C and the mentioned downstream steps in the apoptotic process. This process of cytochrome C release can be measured in cells via Western blot of both mitochrondrial and cytosolic fractions, and can be used a proxy measurement of apoptosis in cells.
As a means of detecting the ability of a Bcl-xL inhibitor with low cell-permeability to cause release of cytochrome C, the cells can be treated with an agent that causes selective pore formation in the plasma membrane, but not the mitochondrial membrane. Specifically, the cholesterol/phospholipid ratio is much higher in the plasma membrane than the mitochondrial membrane. […] This agent forms insoluble complexes with cholesterol leading to the segregation of cholesterol from its normal phospholipid binding sites. This action, in turn, leads to the formation of holes about 40-50 Å wide in the lipid bilayer. Once the plasma membrane is permeabilized, cytosolic components able to pass over digitonin-formed holes can be washed out, including the cytochrome C that was released from mitochondria to cytosol in the apoptotic cells ((Campos, 2006, Cytometry A 69(6):515-523)).
To determine if Bcl-xL inhibitors were inducing cell death through apoptosis, cytochrome C release was measured in Bcl-xL dependent Molt-4 cells following treatment Specifically, 1×10^6 cells were treated for 4 h (37° C., 5% CO2) with the test compounds in half-log dilutions starting at 3.0 μM and ending at 0.01 μM. Cells were then processed as described in Chen et al., 2011, Mol. Cancer Ther. 10:2340-2350 (the Bcl-2/Bcl-X(L)/Bcl-w inhibitor, navitoclax, enhances the activity of chemotherapeutic agents in vitro and in vivo.).

[4] abbreviates: in the presence of 1% HS, read-out: Bcl-xL Binding Ki (nM, 1% HS).
The mark [5] stands for this setting: without HS, read-out: Bcl-xL Binding Ki.

Read-outs that look alike come from different tables or passages of the source.

Chain of Bcl-xL (Q07817 whole entry): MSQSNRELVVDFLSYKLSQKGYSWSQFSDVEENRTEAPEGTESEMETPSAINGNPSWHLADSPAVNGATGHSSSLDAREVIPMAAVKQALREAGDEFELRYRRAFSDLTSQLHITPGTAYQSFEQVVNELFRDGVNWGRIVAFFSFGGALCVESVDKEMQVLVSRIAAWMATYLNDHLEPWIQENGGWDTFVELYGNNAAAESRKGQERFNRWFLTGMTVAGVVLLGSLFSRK

The Ki is the equilibrium dissociation constant of an inhibitor or competing ligand from its target. Consider `Cc1c(-c2ccc(N3CCc4cccc(C(=O)Nc5nc6ccccc6s5)c4C3)nc2C(=O)O)cnn1CC12CC3(C)CC(C)(C1)CC(OCCNC(CO)CO)(C3)C2` [Example 1.45, 6-[8-(1,3-benzothiazol-2-ylcarbamoyl)-3,4-dihydroisoquinolin-2 (1H)-yl]-3-{1-[(3-{2-[(1,3-dihydroxypropan-2-yl)amino]ethoxy}-5,7-dimethyltricyclo[3.3.1.1^3,7]dec-1-yl)methyl]-5-methyl-1H-pyrazol-4-yl}pyridine-2-carboxylic acid], for which the EC50 in test [1] stood at 0.13 nM; in test [2], 19 nM. Besides, the Ki was 0.134 nM on Bcl-xL (setting [4]) and under 0.001 nM at Bcl-xL (setting [5]).
On to `Cc1c(-c2ccc(N3CCc4c(OCCN)ccc(C(=O)Nc5nc6ccccc6s5)c4C3)nc2C(=O)O)cnn1CC12CC3(C)CC(C)(C1)CC(OCCN(C)CCS(=O)(=O)O)(C3)C2` [Example 1.46, 6-[5-(2-aminoethoxy)-8-(1,3-benzothiazol-2-ylcarbamoyl)-3,4-dihydroisoquinolin-2 (1H)-yl]-3-{1-[(3,5-dimethyl-7-{2-[methyl(2-sulfoethyl)amino]ethoxy}tricyclo[3.3.1.1^3,7]dec-1-yl)methyl]-5-methyl-1H-pyrazol-4-yl}pyridine-2-carboxylic acid], for which the Ki on Bcl-xL (setting [4]) is 0.00615 nM; on Bcl-xL (setting [5]) it was under 0.001 nM. Further, the EC50 in test [3] was under 0.5 nM; in test [2], 68 nM.
For `Cc1c(-c2ccc(N3CCc4c(OCCNCCS(=O)(=O)O)ccc(C(=O)Nc5nc6ccccc6s5)c4C3)nc2C(=O)O)cnn1CC12CC3(C)CC(C)(C1)CC(OCCN(C)CCS(=O)(=O)O)(C3)C2` [Example 1.47, 6-[8-(1,3-benzothiazol-2-ylcarbamoyl)-5-{2-[(2-sulfoethyl)amino]ethoxy}-3,4-dihydroisoquinolin-2 (1H)-yl]-3-{1-[(3,5-dimethyl-7-{2-[methyl(2-sulfoethyl)amino]ethoxy}tricyclo[3.3.1.1^3,7]dec-1-yl)methyl]-5-methyl-1H-pyrazol-4-yl}pyridine-2-carboxylic acid], in that order: 0.0294 nM, 0.006 nM, under 0.5 nM and 197 nM.
Take `Cc1c(-c2ccc(-c3cnc4cccc(C(=O)Nc5nc6ccccc6s5)c4c3)nc2C(=O)O)cnn1CC12CC3(C)CC(C)(C1)CC(OCCNCCS(=O)(=O)O)(C3)C2` [Example 1.69, 6-[5-(1,3-benzothiazol-2-ylcarbamoyl)quinolin-3-yl]-3-{1-[(3,5-dimethyl-7-{2-[(2-sulfoethyl)amino]ethoxy}tricyclo[3.3.1.1^3,7]dec-1-yl)methyl]-5-methyl-1H-pyrazol-4-yl}pyridine-2-carboxylic acid]: in test [1], the EC50 was 0.14 nM. The Ki on Bcl-xL (setting [4]) was 4.9 nM; at Bcl-xL (setting [5]), under 0.01 nM.
As to `Cc1c(-c2ccc(N3CCc4cccc(C(=O)Nc5nc6ccccc6s5)c4C3)nc2C(=O)O)cnn1CC12CC3(C)CC(C)(C1)CC(OCCNC[C@@H](O)[C@@H](O)[C@H](O)CO)(C3)C2` [Example 1.76, 5-{[2-([3-[(4-{6-[8-(1,3-benzothiazol-2-ylcarbamoyl)-3,4-dihydroisoquinolin-2 (1H)-yl]-2-carboxypyridin-3-yl}-5-methyl-1H-pyrazol-1-yl)methyl]-5,7-dimethyltricyclo[3.3.1.1^3,7]dec-1-yl}oxy)ethyl]amino}-5-deoxy-D-arabinitol], the figures for the EC50 in test [1] and in test [2] were 0.26 nM and 495 nM, respectively. The Ki at Bcl-xL (setting [4]) is 1.05 nM; at Bcl-xL (setting [5]), under 0.01 nM.
As to `Cc1c(-c2ccc(N3CCc4cccc(C(=O)Nc5nc6ccccc6s5)c4C3)nc2C(=O)O)cnn1CC12CC3(C)CC(C)(C1)CC(OCCNCC[C@@H](O)[C@H](O)[C@H](O)CO)(C3)C2` [Example 1.77, 1-{[2-({3-[(4-{6-[8-(1,3-benzothiazol-2-ylcarbamoyl)-3,4-dihydroisoquinolin-2 (1H)-yl]-2-carboxypyridin-3-yl}-5-methyl-1H-pyrazol-1-yl)methyl]-5,7-dimethyltricyclo[3.3.1.1^3,7]dec-1-yl}oxy)ethyl]amino}-1,2-dideoxy-D-arabino-hexitol], the EC50 was found to be 0.099 nM in test [1] and 837 nM in test [2]. Further, the figures for the Ki at Bcl-xL (setting [4]) and on Bcl-xL (setting [5]) were 0.166 nM and under 0.01 nM, respectively.
As for `Cc1c(-c2ccc(N3CCc4cccc(C(=O)Nc5nc6ccccc6s5)c4C3)nc2C(=O)O)cnn1CC12CC3(C)CC(C)(C1)CC(OCCNCC(CO)CO)(C3)C2` [Example 1.79, 6-[8-(1,3-benzothiazol-2-ylcarbamoyl)-3,4-dihydroisoquinolin-2 (1H)-yl]-3-(1-{[3-(2-{[3-hydroxy-2-(hydroxymethyl)propyl]amino}ethoxy)-5,7-dimethyltricyclo[3.3.1.1^3,7]dec-1-yl]methyl}-5-methyl-1H-pyrazol-4-yl)pyridine-2-carboxylic acid], the EC50 in test [1] was found to be 0.14 nM; in test [2] it was 104 nM. For the same molecule, the inhibition constant Ki on Bcl-xL (setting [4]) is 3.1 nM; on Bcl-xL (setting [5]), under 0.01 nM.
For `Cc1c(-c2ccc(N3CCc4cccc(C(=O)Nc5nc6ccccc6s5)c4C3)nc2C(=O)O)cnn1CC12CC3(C)CC(C)(C1)CC(OCCNCC[C@H](O)CO)(C3)C2` [Example 1.85], the EC50 came out at 0.07 nM in test [1] and 78 nM in test [2]. Besides, the inhibition constant Ki stood at 0.4 nM at Bcl-xL (setting [4]) and 0.016 nM on Bcl-xL (setting [5]).
For `Cc1c(-c2ccc(-c3ccc4cccc(C(=O)Nc5nc6ccccc6s5)c4c3)nc2C(=O)O)cnn1CC12CC3(C)CC(C)(C1)CC(OCCNCCCO[C@@H]1O[C@H](C(=O)O)[C@@H](O)[C@H](O)[C@H]1O)(C3)C2` [Example 1.87, 3-{[2-({3-[(4-{6-[8-(1,3-benzothiazol-2-ylcarbamoyl)naphthalen-2-yl]-2-carboxypyridin-3-yl)-5-methyl-1H-pyrazol-1-yl)methyl]-5,7-dimethyltricyclo[3.3.1.1^3,7]dec-1-yl}oxy)ethyl]amino}propyl beta-D-glucopyranosiduronic acid], in that order: 0.06 nM, 378 nM, 0.55 nM and under 0.01 nM.
For `CNCCOC12CC3(C)CC(C)(CC(Cn4ncc(-c5ccc(-c6ccc7c[n+]([O-])cc(C(=O)Nc8nc9ccccc9s8)c7c6)nc5C(=O)O)c4C)(C3)C1)C2` [Example 1.88, 6-[4-(1,3-benzothiazol-2-ylcarbamoyl)-2-oxidoisoquinolin-6-yl]-3-[1-({3,5-dimethyl-7-[2-(methylamino)ethoxy]tricyclo[3.3.1.1^3,7]dec-1-yl}methyl)-5-methyl-1H-pyrazol-4-yl]pyridine-2-carboxylic acid], in that order: 0.21 nM, 96 nM, 3 nM and 0.127 nM.
